Patent US9211310B2, “Use of a Chinese medicine composition in preparing medicaments for treating secondary prevention of myocardial infarction” (TASLY PHARMACEUTICAL GROUP CO., LTD, priority 2010, dated 2015)

Tested on: patients after acute myocardial infarction
Assay: Angina pectoris score, total and single (frequency/attack times, duration, pain degree, dose of nitroglycerin), same clinical trial
Assay type: in vivo, human
Excerpt: In order to better understand the present invention, a multi-center, randomized, double-blind, double-dummy and positive drug controlled trial had been conducted. 3508 patients who were in accordance with the diagnostic standards of AMI for 28 days to 2 years and differentiated as Qi deficiency and blood stagnation syndrome by TCM were studied. 0.5 g Chinese medicine composition prepared by the method of EXAMPLE 1 (Coded as QSYQ) was administrated half an hour after meal, 3 times per day. Aspirine was used as a positive drug. The patients were treated for 1 year and observed for 6 months.
They included the overall survival time, angina pectoris score, TCM symptom score and life quality score, where angina pectoris score, TCM symptom score and life quality score were evaluated at randomization, in 1st, 3rd, 6th, 9th, 12th month after treatment and 18th month after follow-up.
Total angina pectoris score was described on every observation period and the change of observation in comparison with baseline. T-test or Wilcoxon rank sum test were used for inter-group comparison. Grade of total score was evaluated on every observation and Wilcoxon rank sum test was used for inter-group comparison. T-test and Pairing signed rank sum test were used for analyzing the change of total score on every observation between groups in comparison with the baseline.
Single angina pectoris score was depicted on every observation time-point and the change of observation in comparison with baseline. Wilcoxon rank sum test was used for inter-group comparison. Pairing signed rank sum test was used for analyzing the change of total score on every observation between groups in comparison with the baseline.
Total angina pectoris score was described on every observation period and the change of observation in comparison with the baseline. T-test or Wilcoxon rank sum test were used for inter-group comparison. Grade of total score was evaluated on every observation and Wilcoxon rank sum test was used for inter-group comparison. T-test and Pairing signed rank sum test were used for analyzing the change of total score on every observation between groups in comparison with the baseline.
Single angina pectoris score was described on every observation time-point and the change of observation in comparison with baseline. Wilcoxon rank sum test was used for inter-group comparison. Pairing signed rank sum test was used for analyzing the change of total score on every observation between groups in comparison with the baseline.

## CC(=O)Oc1ccccc1C(=O)O [Control group, aspirine]
1 month after treatment-baseline, change 0, FAS
  change of attack times score, patients (%): (74.81%)
1 month after treatment-baseline, change 0, PP
  change of attack times score, patients (%): (74.53%)
1 month after treatment-baseline, change 1, FAS
  change of attack times score, patients (%): (2.07%)
1 month after treatment-baseline, change 1, PP
  change of attack times score, patients (%): (1.95%)
1 month after treatment-baseline, change 2, FAS
  change of attack times score, patients (%): (2.35%)
1 month after treatment-baseline, change 2, PP
  change of attack times score, patients (%): (2.08%)
1 month after treatment-baseline, change 3, FAS
  change of attack times score, patients (%): (0.11%)
1 month after treatment-baseline, change 3, PP
  change of attack times score, patients (%): (0.13%)
1 month after treatment-baseline, change 4, FAS
  change of attack times score, patients (%): (0.06%)
1 month after treatment-baseline, change 4, PP
  change of attack times score, patients (%): (0.07%)
1 month after treatment-baseline, change −1, FAS
  change of attack times score, patients (%): (7.11%)
1 month after treatment-baseline, change −1, PP
  change of attack times score, patients (%): (7.06%)
1 month after treatment-baseline, change −2, FAS
  change of attack times score, patients (%): (11.99%)
1 month after treatment-baseline, change −2, PP
  change of attack times score, patients (%): (12.63%)
1 month after treatment-baseline, change −3, FAS
  change of attack times score, patients (%): (0.34%)
1 month after treatment-baseline, change −3, PP
  change of attack times score, patients (%): (0.40%)
1 month after treatment-baseline, change −4, FAS
  change of attack times score, patients (%): (1.03%)
1 month after treatment-baseline, change −4, PP
  change of attack times score, patients (%): (1.08%)
1 month after treatment-baseline, change −5, FAS
  change of attack times score, patients (%): (0.00%)
1 month after treatment-baseline, change −5, PP
  change of attack times score, patients (%): (0.00%)
1 month after treatment-baseline, change −6, FAS
  change of attack times score, patients (%): (0.11%)
1 month after treatment-baseline, change −6, PP
  change of attack times score, patients (%): (0.07%)
3 months after treatment, score 0, FAS
  attack times score, patients (%): (40.02%)
3 months after treatment, score 0, PP
  attack times score, patients (%): (40.46%)
3 months after treatment, score 1, FAS
  attack times score, patients (%): (14.11%)
3 months after treatment, score 1, PP
  attack times score, patients (%): (13.92%)
3 months after treatment, score 2, FAS
  attack times score, patients (%): (41.46%)
3 months after treatment, score 2, PP
  attack times score, patients (%): (41.89%)
3 months after treatment, score 4, FAS
  attack times score, patients (%): (4.30%)
3 months after treatment, score 4, PP
  attack times score, patients (%): (3.60%)
3 months after treatment, score 6, FAS
  attack times score, patients (%): (0.11%)
3 months after treatment, score 6, PP
  attack times score, patients (%): (0.14%)
3 months after treatment-baseline, change 0, FAS
  change of attack times score, patients (%): (65.52%)
3 months after treatment-baseline, change 0, PP
  change of attack times score, patients (%): (65.15%)
3 months after treatment-baseline, change 1, FAS
  change of attack times score, patients (%): (3.10%)
3 months after treatment-baseline, change 1, PP
  change of attack times score, patients (%): (2.79%)
3 months after treatment-baseline, change 2, FAS
  change of attack times score, patients (%): (2.24%)
3 months after treatment-baseline, change 2, PP
  change of attack times score, patients (%): (1.83%)
3 months after treatment-baseline, change 3, FAS
  change of attack times score, patients (%): (0.00%)
3 months after treatment-baseline, change 4, FAS
  change of attack times score, patients (%): (0.17%)
3 months after treatment-baseline, change 4, PP
  change of attack times score, patients (%): (0.14%)
3 months after treatment-baseline, change −1, FAS
  change of attack times score, patients (%): (10.96%)
3 months after treatment-baseline, change −1, PP
  change of attack times score, patients (%): (11.21%)
3 months after treatment-baseline, change −2, FAS
  change of attack times score, patients (%): (15.78%)
3 months after treatment-baseline, change −2, PP
  change of attack times score, patients (%): (16.51%)
3 months after treatment-baseline, change −3, FAS
  change of attack times score, patients (%): (0.46%)
3 months after treatment-baseline, change −3, PP
  change of attack times score, patients (%): (0.54%)
3 months after treatment-baseline, change −4, FAS
  change of attack times score, patients (%): (1.43%)
3 months after treatment-baseline, change −4, PP
  change of attack times score, patients (%): (1.56%)
3 months after treatment-baseline, change −5, FAS
  change of attack times score, patients (%): (0.11%)
3 months after treatment-baseline, change −5, PP
  change of attack times score, patients (%): (0.14%)
3 months after treatment-baseline, change −6, FAS
  change of attack times score, patients (%): (0.23%)
3 months after treatment-baseline, change −6, PP
  change of attack times score, patients (%): (0.14%)
6 months after treatment, score 0, FAS
  attack times score, patients (%): (44.55%)
6 months after treatment, score 0, PP
  attack times score, patients (%): (45.98%)
6 months after treatment, score 1, FAS
  attack times score, patients (%): (15.54%)
6 months after treatment, score 1, PP
  attack times score, patients (%): (15.92%)
6 months after treatment, score 2, FAS
  attack times score, patients (%): (36.81%)
6 months after treatment, score 2, PP
  attack times score, patients (%): (36.17%)
6 months after treatment, score 4, FAS
  attack times score, patients (%): (3.04%)
6 months after treatment, score 4, PP
  attack times score, patients (%): (1.85%)
6 months after treatment, score 6, FAS
  attack times score, patients (%): (0.06%)
6 months after treatment, score 6, PP
  attack times score, patients (%): (0.07%)
6 months after treatment-baseline, change 0, FAS
  change of attack times score, patients (%): (57.95%)
6 months after treatment-baseline, change 0, PP
  change of attack times score, patients (%): (56.80%)
6 months after treatment-baseline, change 1, FAS
  change of attack times score, patients (%): (2.47%)
6 months after treatment-baseline, change 1, PP
  change of attack times score, patients (%): (1.92%)
6 months after treatment-baseline, change −1, FAS
  change of attack times score, patients (%): (15.20%)
6 months after treatment-baseline, change −1, PP
  change of attack times score, patients (%): (16.07%)
6 months after treatment-baseline, change −2, FAS
  change of attack times score, patients (%): (18.70%)
6 months after treatment-baseline, change −2, PP
  change of attack times score, patients (%): (19.92%)
6 months after treatment-baseline, change −3, FAS
  change of attack times score, patients (%): (0.92%)
6 months after treatment-baseline, change −3, PP
  change of attack times score, patients (%): (1.10%)
6 months after treatment-baseline, change −4, FAS
  change of attack times score, patients (%): (1.78%)
6 months after treatment-baseline, change −4, PP
  change of attack times score, patients (%): (1.92%)
6 months after treatment-baseline, change −5, FAS
  change of attack times score, patients (%): (0.00%)
6 months after treatment-baseline, change −5, PP
  change of attack times score, patients (%): (0.00%)
6 months after treatment-baseline, change −6, FAS
  change of attack times score, patients (%): (0.34%)
6 months after treatment-baseline, change −6, PP
  change of attack times score, patients (%): (0.27%)
9 months after treatment, score 0, FAS
  attack times score, patients (%): (47.31%)
9 months after treatment, score 0, PP
  attack times score, patients (%): (49.06%)
9 months after treatment, score 1, FAS
  attack times score, patients (%): (20.30%)
9 months after treatment, score 1, PP
  attack times score, patients (%): (21.62%)
9 months after treatment, score 2, FAS
  attack times score, patients (%): (30.22%)
9 months after treatment, score 2, PP
  attack times score, patients (%): (28.34%)
9 months after treatment, score 4, FAS
  attack times score, patients (%): (2.06%)
9 months after treatment, score 4, PP
  attack times score, patients (%): (0.83%)
9 months after treatment, score 6, FAS
  attack times score, patients (%): (0.11%)
9 months after treatment, score 6, PP
  attack times score, patients (%): (0.14%)
12 months after treatment, score 0, FAS
  attack times score, patients (%): (52.12%)
12 months after treatment, score 0, PP
  attack times score, patients (%): (55.03%)
12 months after treatment, score 1, FAS
  attack times score, patients (%): (22.02%)
12 months after treatment, score 1, PP
  attack times score, patients (%): (23.88%)
12 months after treatment, score 2, FAS
  attack times score, patients (%): (23.91%)
12 months after treatment, score 2, PP
  attack times score, patients (%): (20.53%)
12 months after treatment, score 4, FAS
  attack times score, patients (%): (1.89%)
12 months after treatment, score 4, PP
  attack times score, patients (%): (0.56%)
12 months after treatment, score 6, FAS
  attack times score, patients (%): (0.06%)
12 months after treatment-baseline, change 0, FAS
  change of attack times score, patients (%): (45.61%)
12 months after treatment-baseline, change 0, PP
  change of attack times score, patients (%): (41.86%)
12 months after treatment-baseline, change 1, FAS
  change of attack times score, patients (%): (2.07%)
12 months after treatment-baseline, change 1, PP
  change of attack times score, patients (%): (1.33%)
12 months after treatment-baseline, change 2, FAS
  change of attack times score, patients (%): (1.72%)
12 months after treatment-baseline, change 2, PP
  change of attack times score, patients (%): (1.19%)
12 months after treatment-baseline, change 3, FAS
  change of attack times score, patients (%): (0.06%)
12 months after treatment-baseline, change 4, FAS
  change of attack times score, patients (%): (0.17%)
12 months after treatment-baseline, change 4, PP
  change of attack times score, patients (%): (0.14%)
12 months after treatment-baseline, change −1, FAS
  change of attack times score, patients (%): (22.89%)
12 months after treatment-baseline, change −1, PP
  change of attack times score, patients (%): (25.44%)
12 months after treatment-baseline, change −2, FAS
  change of attack times score, patients (%): (23.01%)
12 months after treatment-baseline, change −2, PP
  change of attack times score, patients (%): (25.02%)
12 months after treatment-baseline, change −3, FAS
  change of attack times score, patients (%): (0.86%)
12 months after treatment-baseline, change −3, PP
  change of attack times score, patients (%): (1.05%)
12 months after treatment-baseline, change −4, FAS
  change of attack times score, patients (%): (3.16%)
12 months after treatment-baseline, change −4, PP
  change of attack times score, patients (%): (3.56%)
12 months after treatment-baseline, change −5, FAS
  change of attack times score, patients (%): (0.06%)
12 months after treatment-baseline, change −5, PP
  change of attack times score, patients (%): (0.07%)
12 months after treatment-baseline, change −6, FAS
  change of attack times score, patients (%): (0.40%)
12 months after treatment-baseline, change −6, PP
  change of attack times score, patients (%): (0.35%)
Baseline, score 0, FAS
  attack times score, patients (%): (27.54%)
Baseline, score 0, PP
  attack times score, patients (%): (26.99%)
Baseline, score 1, FAS
  attack times score, patients (%): (9.06%)
